From patent US9243254B2, “Method for transforming a bacterium belonging to the streptococcus genus by natural competence” (priority 2009, dated 2016)

Experiments:
[1] = test system: LMD9-Δblp::PcomX-luxABΔshp316::P32-cat; assay: Natural transformation in CDM of the shp316-deleted strain upon addition of synthetic peptides (test A); assay type: cell-based, Streptococcus thermophilus; settings: 1 μM synthetic peptide; for Transformation rate, With peptide addition: 1 μg/mL pGIUD0855ery, CDM, erythromycin selection; for Restoration of the competence defect: result in words
Experimental: A mutant strain of LMD-9 in which the shp316 gene (which is the gene encoding the peptide Shp316) has been inactivated, such as strain LMD9-Δblp::PcomX-luxABΔshp316::P32-cat (see Example 2 for details on this strain) is pre-cultivated in M17-lactose medium. The cells of the preculture are harvested (5000 g, 9 minutes, 20° C.) and washed twice in Chemically Defined Medium (CDM, see Annex I) and then resuspended in CDM. The washed cells are diluted in fresh CDM medium to obtain an optical density of 0.05 at 600 nm, and then incubated at 37° C. After 1.5 h of incubation, the culture is separated in 2 aliquots of 10 mL and 0 or 1000 nM of peptide are added in the culture samples. Finally, each 10 mL-aliquot is divided in 2 samples of 5 mL each. One of the 2 samples receives 1 μg/mL pGIUD0855ery, a plasmid bearing an erythromycin resistance gene. The competence phenotype of the samples is studied by performing natural transformation experiments as described in example 1. The cultures are grown for 6 hours and serial dilutions are plated on the surface of M17-lactose agar medium containing or not 2.5 μg/mL of erythromycin. The transformation rate in the presence or absence of peptide is calculated for each sample; it is expressed as the ratio of erythromycin-resistant cells among the total bacterial population.
The experimental strategy is described below. Strain LMD9-Δblp::PcomX-luxABΔshp316::P32-cat is precultivated in M17-lactose medium. The cells of the preculture were harvested (5000 g, 9 minutes, 20° C.) and washed twice in CDM and then resuspended in CDM. The washed cells are diluted in fresh CDM to obtain an optical density of 0.05 at 600 nm, and then incubated at 37° C. After 1.5 h of incubation, in one set of experiment, 1 μM of one of the tested synthetic peptides and 1 μg/mL of pGIUD0855ery were added to the culture; whereas 1 μg/mL of pGIUD0855ery but no synthetic peptide was added to the second set of experiment. The cultures were grown during 6 hours and serial dilutions were plated on the surface of M17-lactose agar medium containing 2.5 μg/mL of erythromycin to measure transformation efficiency.
Ability of peptides derived from Shp316 to restore the competence defect of LMD9-Δblp::PcomX-luxABΔshp316::P32-cat was further investigated focusing on the synthetic peptide PYFAGCL. Experimental work was performed as described above except that various concentrations of PYFAGCL were used: 0 nM, 1 nM, 10 nM, 100 nM, 500 nM, 1 μM, 2.5 μM and 5 μM. […]

[2] = test system: S. thermophilus CNRZ1066; assay: Natural transformation in CDM upon addition of synthetic peptide; assay type: cell-based, Streptococcus thermophilus
Experimental: (§1) Similarly to the protocol used in example 4, strains LMD-9, LMG18311, CNRZ1066 and JIM8777 were pre-cultivated in M17-lactose medium. The cells of the precultures were harvested (5000 g, 9 minutes, 20° C.) and washed twice in CDM and then resuspended in CDM. The washed cells were diluted in fresh CDM medium to obtain an optical density of 0.05, and then incubated at 37° C. After 1.5 h of incubation, in one set of experiment, 1 μM of one of the tested synthetic peptides and 1 μg/mL of pGIUD0855ery DNA (in case of S. thermophilus strains), or 1 μg/ml of pG+host09 DNA (in case of S. salivarius strains) were added to the culture, whereas 1 μg/mL of DNA but no synthetic peptide was added to the second set of experiment. The cultures were grown during 6 hours and serial dilutions were plated on the surface of M17-lactose agar medium containing 2.5 μg/mL of erythromycin to measure transformation efficiency. Transformed S. thermophilus and S. salivarius cells are selected at 37° C. and 29° C., respectively.
Similarly to the protocol used in example 4, various S. thermophilus strains, including LMD-9, CNRZ1066 and LMG18311 used as controls, were pre-cultivated in M17-lactose medium. The cells of the precultures were harvested (5000 g, 9 minutes, 20° C.) and washed twice in CDM and then resuspended in CDM. The washed cells were diluted in fresh CDM medium to obtain an optical density of 0.05, and then incubated at 37° C. After 1.5 h of incubation, in one set of experiment, 1 μM of one of the tested synthetic peptides (LPYFAGCL) (SEQ ID NO: 85) and 1 μg/mL of pGIUD0855cat DNA were added to the culture, whereas 1 μg/mL of DNA but no synthetic peptide was added to the second set of experiment. Plasmid pGIUD0855cat is a pUC18-derivative containing a chloramphenicol resistance cassette flanked by 1-kb fragments corresponding to the upstream and downstream regions of stu0855. Upon transformation, it promotes the genetic replacement of stu0855 by P32-cat through homologous recombination (FIG. 7). The cultures were grown during 6 hours and serial dilutions were plated on the surface of M17-lactose agar medium containing 5 μg/mL of chloramphenicol to measure transformation efficiency. Transformed S. thermophilus cells were selected at 37° C.; when transformants were obtained, the transformation efficiency was calculated and is given in Table 9.
Day 2: • Centrifuge Day 1—culture (centrifugation parameters: 5000 g, 9 minutes, 15° C.) and perform two washing steps with one volume (10 mL) of CDM (centrifugation parameters: 5000 g, 9 minutes, 15° C.). • Dilute the culture in 10 mL CDM to obtain an OD600nm of 0.05. • A small volume of S. thermophilus cultures (300 μL) is then transferred in white microplate with a transparent bottom (655095; Greiner, Alphen aid Rijn, The Netherlands) and is grown at 37° C. Luminescence at 595 nm and optical density at 600 nm are recorded with the automatic Synergy HT multi-mode microplate reader. The luciferase activity catalysed by LuxAB requires the presence of nonanal as substrate. In this experimental set-up, nonanal (Acros Organics ref. 204-688-5) is supplied to the cultures by placing 50 μL of a solution containing 1% nonanal diluted in mineral oil in the spaces between the wells of a covered microplate (11). […] The luminescence and absorbance are scanned every 10 minutes during 6 hours. • To perform a competence experiment, 1 μg of donor DNA is added in the 300 μL samples in the beginning of incubation. […]

[3] = test system: S. salivarius JIM8777; assay: as above; assay type: cell-based, Streptococcus salivarius
Experimental: as §1
Day 2: • Centrifuge Day 1—culture (centrifugation parameters: 5000 g, 9 minutes, 15° C.) and perform two washing steps with one volume (10 mL) of CDM (centrifugation parameters: 5000 g, 9 minutes, 15° C.). • Dilute the culture in 10 mL CDM to obtain an OD600nm of 0.05. • A small volume of S. thermophilus cultures (300 μL) is then transferred in white microplate with a transparent bottom (655095; Greiner, Alphen aid Rijn, The Netherlands) and is grown at 37° C. Luminescence at 595 nm and optical density at 600 nm are recorded with the automatic Synergy HT multi-mode microplate reader. The luciferase activity catalysed by LuxAB requires the presence of nonanal as substrate. In this experimental set-up, nonanal (Acros Organics ref. 204-688-5) is supplied to the cultures by placing 50 μL of a solution containing 1% nonanal diluted in mineral oil in the spaces between the wells of a covered microplate (11). The nonanal present in the solution will become volatile and there will be an equilibrium between the concentration of nonanal present in the air and in the culture samples. The luminescence and absorbance are scanned every 10 minutes during 6 hours. • To perform a competence experiment, 1 μg of donor DNA is added in the 300 μL samples in the beginning of incubation. […] In case of the sample that received DNA, make different 10-fold dilutions of the sample and plate 100 μL on the same solid selective medium. Check the viability of the cells in the samples by plating 10 μL of serial 10-fold dilutions of the cultures on M17, lactose 1% medium. Transformants are picked following 24 h of incubation at 37° C. in anaerobic conditions (gaspak BBL). […]

[4] = 1 μM PYFTGCL, 1 μg/mL pG+host09

Substance | Transformation rate, With peptide addition [1] | other results
PYFAGC (fragment) [synthetic peptide, fragment of Shp316 without the carboxy-terminal leucine] | <10^−8 | 
ILPYFAGC (fragment) [synthetic peptide, fragment of Shp316 without the carboxy-terminal leucine] | <10^−8 | 
AILPYFAGC (fragment) [synthetic peptide, fragment of Shp316 without the carboxy-terminal leucine] | <10^−8 | 
LPYFAGC (fragment) [synthetic peptide, fragment of Shp316 without the carboxy-terminal leucine] | <10^−8 | 
PYFAG (fragment) [synthetic peptide corresponding to a fragment of Shp316 without the C-terminal CL] | <10^−8 | 
AILPYFAGCL (fragment) [synthetic peptide corresponding to a C-terminal fragment of Shp316] | 2.21 × 10^−3 | Restoration of the competence defect [1]: allowed to restore the competence defect
ILPYFAGCL (fragment) [synthetic peptide corresponding to a C-terminal fragment of Shp316] | 3.42 × 10^−3 | Restoration of the competence defect [1]: allowed to restore the competence defect
ILPYFAG (fragment) [synthetic peptide corresponding to a fragment of Shp316 without the C-terminal CL] | <10^−8 | 
PYFTGCL (fragment) [alanine in position 4 replaced by threonine] |  | Transformation rate, With peptide addition [2, 4]: 3.48 × 10^−7; Complementation of the transformation defect in CDM ([2]; 1 μM peptide, result in words): able to complement the transformation defect; Transformation rate, With peptide addition [3, 4]: 5.77 × 10^−7; Complementation of the transformation defect in CDM ([3]; 1 μM peptide, result in words): able to complement the transformation defect
